What was measured:
[1] = tested on: β-1,3-glucanase; experiment: β-1,3-glucanase elicitation in germinating mung beans after seed treatment (laminarin substrate); assay type: in vivo; details: mung bean seeds, 0.5, 0.05 and 0.005 mg/seed; higher doses gave lower activities
Description: Enzyme activity measurements relate to the level of a given enzyme protein in the plant tissue. As an example of enhanced enzyme activity, β-1,3-glucanase was measured. The enzyme, β-1,3-glucanase, was assayed using laminarin (a soluble β-1,3-glucan) as substrate. Crude homogenates of the seedlings from treated seeds yielded the data in FIG. 1. Increased β-1,3-glucanase activity compared to controls (without seed treatment) was obtained in the micronutrient of the present invention treatments ten days following germination. Elicitation of mung beans seeds that were treated with the micronutrient of the present invention were compared to those treated with two types of elicitors. First, various concentrations of purified colloidal chitin/chitosan were used. […] Secondly, lower concentrations of the chitin oligosaccharide containing six glycan moieties, N-acetylchitohexaose were studied. The importance of the chitin oligosaccharide is that short chains of chitin have been found optimal in elicitation of many types of plants. […] Comparisons similar to those with chitin/chitosan could be made between the performance of 1 mg/seed micronutrient of the present invention and lower concentrations of the more optimal oligosaccharide.

[2] = assay type: physicochemical
Text: Chitin/chitosan occurs naturally in a range from 100% chitin to 100% chitosan as a mixed polymer. […] Below is data showing that the micronutrient of the present invention outperforms chitin/chitosan as an elicitor of self-protecting enzymes.

| Compound | dose response relationship of β-1,3-glucanase specific activity [1] | water solubility [2] |
| --- | --- | --- |
| CC(=O)N[C@H]1[C@H](O[C@H]2[C@H](O)[C@@H](NC(C)=O)[C@H](O[C@H]3[C@H](O)[C@@H](NC(C)=O)C(O)O[C@@H]3CO)O[C@@H]2CO)O[C@H](CO)[C@@H](O[C@@H]2O[C@H](CO)[C@@H](O[C@@H]3O[C@H](CO)[C@@H](O[C@@H]4O[C@H](CO)[C@@H](O)[C@H](O)[C@H]4NC(C)=O)[C@H](O)[C@H]3NC(C)=O)[C@H](O)[C@H]2NC(C)=O)[C@@H]1O (some centres unmarked) [N-acetylchitohexaose] | negative |  |
| chitin/chitosan |  | not water soluble |
